What all share (assay): DTP human tumour cell line panel, 48 h
Assay [1] has as its system OVCAR-5 ovarian.
Assay [2] deals with HCT-15 colon.
In assay [3] the test system is HL-60(TB) leukemia.
Assay [4] concerns ACHN renal.
Assay [5] concerns SR leukemia.
In assay [6] the test system is SK-MEL-28 melanoma.
Assay [7] deals with NCI-H226 lung.
In assay [8] the test system is SN12C renal.
Assay [9] has as its system NCI-H522 lung.
Assay [10] has as its system BT-549 breast.

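Cells were grown in 96-well plates and exposed to each compound for 48 hours at five concentrations; endpoints were interpolated linearly between bracketing concentrations, or set to the highest concentration if not reached. Abbreviation: GI50, concentration required for 50% inhibition of growth. TGI denotes the concentration required for complete inhibition of growth.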 Some results are limits rather than exact numbers.

In the case of `N.N.N.N.N.N.O=N[O-].[Br-].[Co+3].[Co+3].[OH3+].[OH3+]`, the GI50 in [1], in [2], in [3], in assay [4], in assay [5] and in assay [6] was above 100 µM in each case. Also, the GI50 in assay [7] and in assay [8] was above 100 µM throughout. In addition, the TGI in assay [1], in assay [2], in [3], in assay [4], in [5] and in assay [6] was above 100 µM each time. Also, the TGI in assay [7] and in assay [8] was above 100 µM each time.

On to `CCC(c1cccc(O)c1)C(CC)c1cccc(O)c1` (stereo not given), for which the GI50 is 12 µM in assay [1]; 4.9 µM in assay [9]; 3.52 µM in assay [2]; 5.64 µM in assay [4]; 4.9 µM in assay [6]; 12.1 µM in [7]. Further, the values for the GI50 in assay [8] and in assay [10] were 5.46 µM and 1.09 µM, respectively. For the same compound, the TGI came to 24.3 µM in [1]; 19.3 µM in assay [9]; 14.8 µM in [2]; 18.9 µM in assay [4]; 18.2 µM in [6]; 26.3 µM in [7]. Further, the figures for the TGI in assay [8] and in assay [10] were 19.4 µM and 14.3 µM, respectively.

Regarding `CN1C(=O)C(Cl)(C(Cl)(Cl)S(=O)(=O)O)C(=O)c2ccccc21` (stereo not given), the TGI in [9], in assay [3], in [4], in assay [5], in assay [6] and in assay [7] was above 100 µM in each case. This compound gave a TGI in [8] above 100 µM.

Consider `CN=C1SC(=Nc2ccc(N(C)C)cc2)N1C`, for which the TGI in assay [1] was above 100 µM; in [9], 59.3 µM; in assay [2], above 100 µM; in [3], above 100 µM; in assay [5], above 100 µM; in assay [6], above 100 µM. Also, the TGI in assay [7] and in assay [8] was above 100 µM throughout.

Regarding `CCOc1ccccc1NC(=O)CCc1nc(=S)[nH][nH]1`, the total growth inhibition concentration (TGI) in assay [1], in assay [9], in [2], in assay [3], in [4] and in [5] was above 100 µM in each case. Further, the TGI in [6], in assay [7] and in assay [8] was above 100 µM throughout.

Take `COc1ccc2c(c1)[n+]([O-])c(/C(C)=N/NC(=O)CC#N)c[n+]2[O-]`: the TGI in assay [1], in assay [9], in [2], in [3], in [4] and in assay [5] was above 100 µM throughout. For the same compound, the TGI in assay [6], in assay [7] and in assay [8] was above 100 µM in each case.

For the compound `Cc1cc2c(=O)c3ccccc3[nH]c2c(C(=O)O)c1C`, the TGI in assay [2], in assay [3], in assay [4], in assay [5], in [6] and in assay [8] was above 100 µM each time.

`Cc1c(Cl)cccc1NC(=O)CC1C(=O)Nc2ccccc2S1(=O)=O` (stereo not given): the TGI was 41.5 µM in assay [1]; 25.7 µM in [2]; 16 µM in assay [3]; 31.5 µM in assay [4]; 30.3 µM in [5]; 38.6 µM in [6]. For the same compound, the values for the TGI in assay [7] and in assay [8] were 35.1 µM and 31.9 µM, respectively.

As for `CCN(CC)c1ccc2c(c1)Nc1cc(=C(C#N)C#N)c3ccccc3c1=N2`, the TGI in assay [1], in assay [9], in [3], in assay [4], in [5] and in assay [6] was above 100 µM throughout. Besides, the TGI in assay [7] and in assay [8] was above 100 µM throughout.

`N#CC(NNC(=O)c1ccccc1O)c1cccc(O)c1` (stereo not given): the TGI in assay [1] was above 100 µM; in assay [9] it was 98.5 µM; in [2], above 100 µM; in assay [3] it was 73.9 µM; in assay [4], above 100 µM; in [5], above 100 µM. Also, the TGI is above 100 µM in [6], 88.5 µM in assay [7] and above 100 µM in assay [8].

`COC1CC(OC(=O)c2ccccc2)C(OC(=O)c2ccccc2)C(C)O1` (stereo not given): the TGI in assay [1], in assay [9], in assay [2], in [3], in assay [4] and in assay [5] was above 100 µM each time. Further, the TGI in assay [6], in assay [7] and in assay [8] was above 100 µM throughout.

As to `C1=CC=C2NCCOCCNC3=CC=CC=CC3=NCCOCCN=C2C=C1`, the TGI is above 100 µM in [1]; above 100 µM in assay [9]; above 100 µM in assay [2]; 70.5 µM in assay [3]; above 100 µM in assay [4]; above 100 µM in assay [6]. Also, the TGI in assay [7] and in [8] was above 100 µM throughout.

For `CC(=O)OC1[C@H]2c3cc4c(cc3CN3CCC(=C[C@@H]1O)C23)OCO4` (stereo not given in full), the TGI in [9], in [2], in assay [3], in [4], in assay [5] and in [6] was above 100 µM each time. For the same compound, the TGI in assay [7] and in [8] was above 100 µM each time.

Take `C=C1C(=O)OC2/C=C(\C=O)CC/C=C(\C)C(O)C[C@@H]12` (stereo not given in full): the TGI was 38.2 µM in assay [1]; 3.41 µM in assay [9]; 14.9 µM in assay [2]; above 21.4 µM in [3]; 19.9 µM in assay [4]; above 27.6 µM in [5]. The total growth inhibition concentration (TGI) amounted to 15.7 µM in assay [6], 43.9 µM in assay [7] and 14.5 µM in assay [8].

Broadly, the GI50 is the concentration giving 50% growth inhibition. Broadly, the TGI is the concentration at which net growth stops. Low values mean greater sensitivity of the cells, high ones lower sensitivity of the cells.

The values are drawn from PubChem BioAssay (NCI).
